The values below come from patent US8822452B2, “Inhibitor compounds of 11-beta-hydroxysteroid dehydrogenase type 1” (Laboratorios Salvat, S.A., priority 2009, dated 2014).

Where “and” joins values, the source holds several entries; their conditions need not be identical. Equal entries are not always repeated.

The target of one experiment is T1, 11-beta-HSD2 (Homo sapiens, UniProt P80365).
T1 construct: expressed in transfected cells; host or cells: HEK-293 cells, stably transfected; microsome preparation
T1 sequence (P80365 1-405): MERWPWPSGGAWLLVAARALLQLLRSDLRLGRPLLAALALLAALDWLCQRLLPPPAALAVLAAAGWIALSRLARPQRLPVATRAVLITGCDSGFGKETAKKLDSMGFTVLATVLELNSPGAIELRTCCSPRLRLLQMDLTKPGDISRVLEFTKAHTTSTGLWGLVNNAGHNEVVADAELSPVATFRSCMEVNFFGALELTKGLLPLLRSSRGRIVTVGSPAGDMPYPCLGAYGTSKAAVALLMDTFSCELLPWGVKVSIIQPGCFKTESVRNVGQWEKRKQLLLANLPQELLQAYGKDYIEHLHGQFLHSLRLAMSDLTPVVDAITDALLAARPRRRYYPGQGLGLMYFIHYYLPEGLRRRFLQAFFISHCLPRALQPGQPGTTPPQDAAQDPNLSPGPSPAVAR
As to the kind of experiment: Inhibitory activity of 11-beta-HSD2 in the microsomal fraction of transfected HEK293 cells (SPA, [3H]-cortisol). Type of experiment: biochemical. Particulars: for inhibition at 10 µM: microsomes of HEK-293 cells transfected with 11-beta-HSD2. As to the method:
Determination of the Inhibitory Activity of 11-Beta-HSD2 in the Microsomal Fraction of Transfected HEK293 Cells
59 μL of the reaction mixture were added to a 96-well plate. This contained 1 mM NAD^+ and 80 μg/mL of the microsome preparations of HEK-293 cells stably transfected with the 11-beta-HSD2 clone, dissolved in assay buffer (50 mM HEPES, 100 mM KCl, 5 mM NaCl, 2 mM MgCl2/100 mL H2O). The inhibitors to be analyzed were dissolved in 100% DMSO, and the final concentration in the reaction was 1%. The reaction mixture was pre-incubated for 30 minutes at 37° C. under stirring. 40 μL of the reaction substrate, 3.2 nM [^3H]-cortisol dissolved in assay buffer were added. It was incubated at 37° C. for two hours under stirring. The stop solution was simultaneously prepared, being incubated for two hours at rt and protected from light. After this time 50 μL of the stop solution were added to end the reaction, and it was incubated for two hours at rt under stirring and protected from light. The signal emitted by SPA beads-cortisol complex was measured in the 1450 Microbeta Tritalux (Wallac®) scintillation counter for 30 seconds per well. This case measures the binding to the substrate, and not to the product as in the assay for the type 1 isoenzyme.

Another experiment addresses T2, 11-beta-HSD1 (Homo sapiens, UniProt P28845).
T2 construct: expressed in transfected cells; host or cells: HEK-293 cells, stably transfected; microsome preparation
Kind of experiment: Inhibitory activity of 11-beta-HSD1 in the microsomal fraction of transfected HEK293 cells (SPA, [3H]-cortisone). It is filed as biochemical. Particulars: microsomes of HEK-293 cells transfected with 11-beta-HSD1. Here is the method:
Determination of the Inhibitory Activity of 11-Beta-HSD1 in the Microsomal Fraction of Transfected HEK293 Cells
99 μL of a reaction mixture which contained 80 nM [^3H]-cortisone, 1 mM NADPH and 40 μg/mL of the microsome preparations of HEK-293 cells stably transfected with the 11-beta-HSD1 clone, dissolved in assay buffer (50 mM HEPES, 100 mM KCl, 5 mM NaCl, 2 mM MgCl2/100 mL H2O) were added to a 96-well plate. The inhibitors to be analyzed were dissolved in 100% DMSO, and the final concentration in the reaction was 1%.
The reaction mixture was incubated for 2 hours at 37° C. under stirring. The total reaction volume per well was 100 μL. The stop solution (5 mg/mL ProteinA Spa bead, Superblock Blocking Buffer, 30 μM glycyrrhetinic acid, 1 μg/mL anticortisol monoclonal antibody) was simultaneously prepared, being incubated under stirring for two hours at rt and protected from light. Once the two hours lapsed, 50 μL of the stop solution were dispensed to each well in the reaction plate and was left to incubate for two hours at rt under stirring and protected from light. Once the second incubation ended, the plate was read in a 1450 Microbeta Tritalux (Wallac®) scintillation counter for 30 seconds per well.

The nature of experiment [1]: Acute glaucoma model: glucose-induced ocular hypertension in rabbit (IOP). Type of experiment: in vivo, Chinchilla Bastard rabbits. The settings on record: for Glucose-induced Hypertension Ratio Inhibitor/Timolol: 0.5% suspension versus Timolol maleate solution 0.5%; for Glucose-induced Hypertension % Inhibition: eye instillation of 0.5% suspension 15 minutes before 5% glucose bolus 20 ml/kg. As to the method: In Vivo Efficacy of 11beta-HSD1 Inhibitors
In vivo efficacy of 11beta-HSD1 inhibitors was evaluated in an acute glaucoma model based on a glucose-induced ocular hypertension model in rabbit.
Male Chinchilla Bastard rabbits (1.5-2.5 kg) were obtained from Charles River (Germany) and were kept under controlled environmental conditions (12-hour light/12-hour dark cycle) with food and drinking water ad libitum. Animals were treated in accordance with the ARVO Statement for the Use of Animals in Ophthalmic and Vision Research.
In order to measure intraocular pressure (IOP) according to the glucose-induced ocular hypertension model, rabbits were restrained and basal IOP was determined using a Tonolab tonometer (Tiolat Oy) at least 1 hour after initial immobilization. Acute ocular hypertension was induced by a bolus of 5% glucose solution at 20 ml/kg into the marginal ear vein and IOP was determined 5, 10, 20, 30 and 40 minutes later. Eye treatment instillation was performed 15 minutes before the hypertension induction and both eyes of each animal were instilled with the same solution, either the vehicle, the 11beta-HSD1 inhibitor suspension at 0.5% or Timolol maleate solution at 0.5% as a positive control.

T2 sequence (P28845 whole entry): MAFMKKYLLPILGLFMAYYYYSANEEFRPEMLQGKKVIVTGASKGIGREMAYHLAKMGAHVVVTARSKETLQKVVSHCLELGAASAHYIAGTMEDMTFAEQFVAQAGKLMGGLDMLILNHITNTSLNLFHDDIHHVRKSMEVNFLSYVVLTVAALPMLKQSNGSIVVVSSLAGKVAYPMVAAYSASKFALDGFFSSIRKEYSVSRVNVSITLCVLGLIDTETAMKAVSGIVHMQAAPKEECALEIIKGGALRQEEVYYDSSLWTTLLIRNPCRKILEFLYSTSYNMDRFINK

As usually defined, the inhibition is the change of the read-out against control, counted positive when it falls. Regarding `O=C(CCCC(=O)N1CCCC2CCCCC21)NCCc1ccccc1` (centres unmarked) [Ia.59, 5-(octahydroquinolin-1-yl)-5-oxopentanoic acid phenethylamide], the inhibition at 10 µM was 0% against 11-beta-HSD2 and 100% on 11-beta-HSD1.

On to `O=C(NCCC(=O)N1CCCC2CCCCC21)c1ccc2ccccc2n1` (centres unmarked) [Id.12, Quinoline-2-carboxylic acid[3-(octahydroquinolin-1-yl)-3-oxopropyl]amide], for which, in experiment [1], the “Glucose-induced Hypertension Ratio Inhibitor/Timolol” value came to 0.87 and the “Glucose-induced Hypertension % Inhibition” value is 50%. This compound also registered an inhibition at 10 µM at 11-beta-HSD2 of 0%. At 11-beta-HSD1, this compound gave an inhibition at 10 µM of 100%.

Turning to `O=C(NCCC(=O)N1CCCC2CCCCC21)c1cc2ccccc2cn1` (centres unmarked) [Id.6, Isoquinoline-3-carboxylic acid [3-(octahydroquinolin-1-yl)-3-oxopropyl]amide], the inhibition at 10 µM at 11-beta-HSD2 worked out at 0%; against 11-beta-HSD1, 100%.

Regarding `O=C1c2ccccc2C(=O)N1CCCCC(=O)N1CCCC2CCCCC21` (centres unmarked) [If.1, 2-(5-(octahydroquinolin-1-yl)-5-oxopentyl)isoindoline-1,3-dione], the “Glucose-induced Hypertension Ratio Inhibitor/Timolol” value in experiment [1] is recorded as 0.90. Moreover, the “Glucose-induced Hypertension % Inhibition” value in experiment [1] turned out to be 51%. The results for the inhibition at 10 µM on 11-beta-HSD2 and against 11-beta-HSD1 were 0% and 100%, respectively.

For `O=C1c2ccc(F)cc2C(=O)N1CCCCC(=O)N1CCCC2CCCCC21` (centres unmarked) [Ik.25, 5-fluoro-2-[5-(octahydroquinolin-1-yl)-5-oxopentyl]isoindole-1,3-dione], the inhibition at 10 µM turned out to be 6% at 11-beta-HSD2 and 100% against 11-beta-HSD1.

`O=C(CCCC(=O)N1CCCC2CCCCC21)NC1CCCc2ccccc21` (centres unmarked) [Ia.224, 5-(octahydroquinolin-1-yl)-5-oxopentanoic acid N-(1,2,3,4-tetrahydronaphthalen-1-yl)amide]: in experiment [1], the “Glucose-induced Hypertension Ratio Inhibitor/Timolol” value was found to be 0.25 and the “Glucose-induced Hypertension % Inhibition” value was 16%.

With `O=C(CCCCC(=O)N1CCCC2CCCCC21)NC1C2CC3CC(C2)CC1C3` (centres unmarked) [Ia.96, 6-(octahydroquinolin-1-yl)-6-oxohexanoic acid tricyclo[3.3.1.1^3,7]decan-2-ylamide], in experiment [1], the “Glucose-induced Hypertension Ratio Inhibitor/Timolol” value was 0.84 and the “Glucose-induced Hypertension % Inhibition” value is 46%.

Consider `CN(Cc1cccc2ccccc12)C(=O)CCCNC(=O)N1CCC2CCCCC2C1` (centres unmarked) [Ib.80, Octahydroisoquinoline-2-carboxylic acid [3-(methylnaphthalen-1-ylmethylcarbamoyl)propyl]amide], for which the inhibition at 10 µM against 11-beta-HSD2 was determined as 13%; at 11-beta-HSD1, 100%.

In the case of `CN(Cc1cccc2ccccc12)C(=O)CCCC(=O)N1CCCC2CCCCC21` (centres unmarked) [Ia.66, 5-(octahydroquinolin-1-yl)-5-oxopentanoic acid methylnaphthalen-1-ylmethylamide], the results for the inhibition at 10 µM against 11-beta-HSD2 and against 11-beta-HSD1 were 6% and 100%, respectively.

Take `O=C(CCCCN1C(=O)c2ccccc2C1=O)N1CCC2CCCCC2C1` (centres unmarked) [If.8, 2-(5-(octahydroisoquinolin-2-yl)-5-oxopentyl) isoindoline-1,3-dione]: the values for the inhibition at 10 µM on 11-beta-HSD2 and against 11-beta-HSD1 were 4% and 100%, respectively.

For the compound `O=C(CCCC(=O)N1CCCC2CCCCC21)NCCc1cccc(F)c1` (centres unmarked) [Ia.198, 5-(octahydroquinolin-1-yl)-5-oxopentanoic acid N-(3-fluorophenethyl)amide], in experiment [1], the “Glucose-induced Hypertension Ratio Inhibitor/Timolol” value worked out at 0.65 and the “Glucose-induced Hypertension % Inhibition” value came out at 41%.

Regarding `CN(Cc1cccc2ccccc12)C(=O)CCCNC(=O)N1CCCC2CCCCC21` (centres unmarked) [Ib.8, Octahydroquinoline-1-carboxylic acid [3-(methylnaphthalen-1-ylmethylcarbamoyl)propyl]amide], the “% Inhibition (10 μM) 11-beta-HSD2” value on 11-beta-HSD2 (microsomes of HEK-293 cells transfected with 11-beta-HSD2, 10 µM) was 0% and 5%. At 10 µM the inhibition on 11-beta-HSD1 was 100%.

On to `O=C(CCCNC(=O)N1CCCC2CCCCC21)N1CCC2CCCCC2C1` (centres unmarked) [Ib.18, Octahydroquinoline-1-carboxylic acid [4-(octahydroisoquinolin-2-yl)-4-oxobutyl]amide], for which the results for the inhibition at 10 µM on 11-beta-HSD2 and on 11-beta-HSD1 were 10% and 100%, respectively.

Consider `O=C(CCCC(=O)N1CCCC2CCCCC21)NCc1ccccc1` (centres unmarked) [Ia.61, 5-(octahydroquinolin-1-yl)-5-oxopentanoic acid benzylamide], for which the inhibition at 10 µM is 0% at 11-beta-HSD2 and 93% against 11-beta-HSD1.
